Among the data in patent US11420966B2 (ACLARIS THERAPEUTICS, INC., priority 2019, dated 2022) are IC50 values, retold here.

The subject of assay [1] is IL-2 stimulated STAT5 phosphorylation on Tyr694 (JAK1/3). In words: JAK1/3 cellular target modulation: IL-2 stimulated phospho-STAT5 in PBMC. It counts as cell-based. The conditions noted are these: human PBMC, IL-2 25 ng/ml; read-out: IL2-STAT5 IC50. The method in brief:
(§1)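 Thawed human PBMC (200,000/well, RPMI/10% FBS) were preincubated with compound for 1 h at 37 °C, added from 10× stocks in 1% DMSO. Stimulation and read-out: IL-2 25 ng/ml, 5 min, pSTAT5 by MSD; IL-12 1.7 ng/ml, 25 min, pSTAT4 by MSD; IFNγ 10 ng/ml, 10 min, pSTAT1 by sandwich ELISA.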

Assay [2] has as its target JAK1 (Homo sapiens (Human), UniProt P23458). Kind of assay: JAK1 enzyme activity assay (Thermo Fisher SelectScreen, Z-lyte). The format is biochemical. The following applies: read-out: JAK1 Inhibition IC50. The method in brief:
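Z-lyte assay with 21.2-91.5 ng JAK and […] Tyr 06 in 50 mM HEPES pH 7.0, 10 mM MgCl2, 1 mM EGTA, 0.01% BRIJ-35; 1 h kinase reaction, then development reagent. 11-point dose-response from […] to 0.34 nM, 2% DMSO vehicle; IC50 from 4-parameter logistic fit of emission ratio.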

Assay [3] relates to IL-12 stimulated STAT4 phosphorylation on Tyr693 (JAK2/TYK2). In words: JAK2/TYK2 cellular target modulation: IL-12 stimulated phospho-STAT4 in PBMC. The conditions noted are these: human PBMC, IL-12 1.7 ng/ml; read-out: IL12-STAT4 IC50. The format is cell-based. The method in brief: as §1
The target in assay [4] is Tyk-2 (Homo sapiens (Human), UniProt P29597). Kind of assay: Tyk-2 enzyme activity assay (Thermo Fisher SelectScreen, Z-lyte). The conditions noted are these: read-out: Tyk-2 Inhibition IC50. It counts as biochemical. The method in brief: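 Z-lyte FRET assay: 3.75–15 ng TYK2 with […] Tyr 03 peptide in HEPES pH 7.0, MgCl2, EGTA, BRIJ-35; 1 h reaction, then development reagent. 11-point dose-response, 2% DMSO; IC50 via 4-parameter fit of emission ratio, background without enzyme.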
Chain of Tyk-2 (P29597 whole entry): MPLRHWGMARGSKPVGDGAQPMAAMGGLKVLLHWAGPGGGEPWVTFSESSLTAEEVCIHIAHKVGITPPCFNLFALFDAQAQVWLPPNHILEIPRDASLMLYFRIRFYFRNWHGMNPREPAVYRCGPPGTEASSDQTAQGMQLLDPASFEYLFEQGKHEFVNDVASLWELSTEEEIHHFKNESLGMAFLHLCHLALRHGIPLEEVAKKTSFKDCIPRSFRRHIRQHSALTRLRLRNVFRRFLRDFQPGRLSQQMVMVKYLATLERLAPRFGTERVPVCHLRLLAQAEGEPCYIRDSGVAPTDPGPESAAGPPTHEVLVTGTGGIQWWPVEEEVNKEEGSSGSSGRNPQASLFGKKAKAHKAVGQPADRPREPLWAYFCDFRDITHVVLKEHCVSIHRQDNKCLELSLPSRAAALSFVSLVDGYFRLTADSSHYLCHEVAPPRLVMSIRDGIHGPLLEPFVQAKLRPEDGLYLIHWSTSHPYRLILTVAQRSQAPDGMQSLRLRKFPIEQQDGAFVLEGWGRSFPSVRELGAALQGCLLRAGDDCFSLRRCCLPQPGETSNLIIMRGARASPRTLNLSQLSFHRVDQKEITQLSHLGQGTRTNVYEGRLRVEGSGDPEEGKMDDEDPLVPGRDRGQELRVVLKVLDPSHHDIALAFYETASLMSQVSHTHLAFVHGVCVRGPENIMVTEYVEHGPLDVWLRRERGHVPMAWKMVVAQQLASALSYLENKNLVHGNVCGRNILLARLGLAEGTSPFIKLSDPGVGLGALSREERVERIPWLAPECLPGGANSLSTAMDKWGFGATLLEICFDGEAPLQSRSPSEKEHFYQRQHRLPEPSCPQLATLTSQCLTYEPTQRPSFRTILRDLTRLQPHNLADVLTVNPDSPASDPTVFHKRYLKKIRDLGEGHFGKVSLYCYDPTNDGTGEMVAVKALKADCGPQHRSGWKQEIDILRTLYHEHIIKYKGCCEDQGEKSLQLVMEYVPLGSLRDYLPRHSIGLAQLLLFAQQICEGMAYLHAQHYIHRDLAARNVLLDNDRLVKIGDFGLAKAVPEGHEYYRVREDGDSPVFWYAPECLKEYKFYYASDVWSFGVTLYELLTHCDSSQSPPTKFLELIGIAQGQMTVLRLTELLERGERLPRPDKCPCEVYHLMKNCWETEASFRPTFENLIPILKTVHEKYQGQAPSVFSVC

Chain of JAK1 (P23458 whole entry): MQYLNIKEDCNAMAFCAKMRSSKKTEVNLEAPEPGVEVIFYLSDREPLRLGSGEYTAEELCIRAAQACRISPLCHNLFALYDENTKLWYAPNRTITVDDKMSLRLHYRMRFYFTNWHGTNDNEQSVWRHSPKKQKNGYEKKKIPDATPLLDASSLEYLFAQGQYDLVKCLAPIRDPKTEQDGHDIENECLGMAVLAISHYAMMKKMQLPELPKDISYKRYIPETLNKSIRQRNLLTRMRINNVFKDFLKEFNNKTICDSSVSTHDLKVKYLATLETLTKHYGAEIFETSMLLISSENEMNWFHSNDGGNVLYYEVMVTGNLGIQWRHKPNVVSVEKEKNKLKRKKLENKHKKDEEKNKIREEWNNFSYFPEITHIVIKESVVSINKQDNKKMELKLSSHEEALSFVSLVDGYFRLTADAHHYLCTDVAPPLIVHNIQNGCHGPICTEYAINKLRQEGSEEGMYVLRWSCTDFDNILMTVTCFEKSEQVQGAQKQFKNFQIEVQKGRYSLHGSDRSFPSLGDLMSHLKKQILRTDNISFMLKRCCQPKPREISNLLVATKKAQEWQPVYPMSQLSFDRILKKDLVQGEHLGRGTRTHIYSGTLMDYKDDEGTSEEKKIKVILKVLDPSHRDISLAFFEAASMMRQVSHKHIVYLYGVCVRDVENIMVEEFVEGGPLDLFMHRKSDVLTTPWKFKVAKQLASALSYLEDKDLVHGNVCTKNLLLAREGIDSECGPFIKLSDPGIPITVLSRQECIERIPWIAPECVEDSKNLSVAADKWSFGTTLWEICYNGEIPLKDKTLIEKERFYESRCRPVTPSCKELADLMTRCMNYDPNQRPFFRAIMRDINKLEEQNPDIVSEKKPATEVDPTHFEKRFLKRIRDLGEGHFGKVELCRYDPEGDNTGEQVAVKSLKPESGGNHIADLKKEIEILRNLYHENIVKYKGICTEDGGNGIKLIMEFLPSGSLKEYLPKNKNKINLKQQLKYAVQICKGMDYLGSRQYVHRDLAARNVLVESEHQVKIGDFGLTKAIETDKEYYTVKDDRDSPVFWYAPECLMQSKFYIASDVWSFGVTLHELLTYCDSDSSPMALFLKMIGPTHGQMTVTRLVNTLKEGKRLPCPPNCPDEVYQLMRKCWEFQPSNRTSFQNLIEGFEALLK

With `CNC(=O)c1coc(-c2cnc3[nH]ccc3c2N[C@@H]2C[C@H](C)CN(C(=O)CC#N)C2)n1` [Example 31, 2-(4-(((3R,5S)-1-(2-cyanoacetyl)-5-methylpiperidin-3-yl)amino)-1H-pyrrolo[2,3-b]pyridin-5-yl)-N-methyloxazole-4-carboxamide], the IC50 was ≤ 0.1 µM in assay [1], ≤ 0.01 µM in assay [2], > 1 µM in assay [3] and ≤ 0.01 µM in assay [4].
